Assays:
[1] = test system: Human PBMCs; assay: Inhibition of mitogen (PWM)-induced lymphocyte proliferation of PBMCs; type: cell-based; conditions: PBMC, PWM 2.5 μg/ml, 48 hrs, tritiated thymidine, read-out: IC50, PBMCs stimulated with PWM
Experimental: Inhibition of Mitogen-induced Lymphocyte Proliferation
The compounds of examples 1, 2, 3, 6, 19, 39, 40 and 43 above were tested for their effects on the proliferation of peripheral blood mononuclear cells (PBMCs) in vitro. The PBMCs were activated with Pokeweed mitogen (PWM), a potent activator of lymphocytes and monocytes which leads to B and T lymphocyte proliferation.
Human PBMCs (2×10^4 cells/well), purified from whole blood by centrifugation through ficoll/hypaque, were incubated with PWM (2.5 μg/ml) and compounds 1 and 2 at a range of dilutions in 96 well microtitre plates for 48 hrs at 37° C. in a 5% CO2 incubator. DMSO was run in each assay as a vehicle control. 0.5 μCuries of tritiated thymidine in 40 μl (Amersham) were added to each well during the final 18 hrs. The cells were then harvested on glass fibre pads using a Tomtech cell harvester and, after adding scintillant to the pad (Meltilex) they were placed in a Wallac MicroBeta plate counter. The results obtained are in counts per minute and reflect the level of tritiated thymidine incorporation into the cells and therefore the level of cell proliferation. The percentage proliferation in test wells compared to control wells was calculated and the inhibition curves plotted. The IC50 values were calculated from the inhibition curves.

[2] = test system: CD69; assay: CD69 expression on T cells activated by anti-CD3 (FACS); type: cell-based, Human; conditions: 4 hrs treatment; untreated cells 68%
Experimental: The compounds of examples 1, 6, 19, 39, 40 and 43 above were tested for its effects on anti-CD3-driven proliferation of peripheral blood mononuclear cells (PBMCs) in vitro. The PBMCs were activated with anti-CD3 antibody which directly activates T lymphocytes via the T cell receptor CD3 component, although other cells do contribute to T cell proliferation by co-stimulation and growth factor production. Human PBMCs (5×10^4cells/well), purified from whole blood by centrifugation through ficoll/hypaque, were incubated in monoclonal anti-CD3 antibody-coated wells (5 μg/ml) and compound 1 at a range of dilutions in a 96 well microtitre plate for 48 hrs at 37° C. in a 5% CO2 incubator. DMSO was run in each assay as a vehicle control. 0.5 μCuries of tritiated thymidine in 40 μl (Amersham) were added to each well during the final 18 hrs. The cells were then harvested on glass fibre pads using a Tomtech cell harvester and, after adding scintillant to the pad (Meltilex) they were placed in a Wallac MicroBeta plate counter. […] The percentage proliferation in test wells compared to control wells was calculated. The results were plotted and the IC50 value calculated.
CD69 is a membrane marker of T cell activation. The level of CD69 expression on the membranes of T cells activated by anti-CD3 was therefore measured by fluorescence activated cell (FACS) flow cytometry.

[3] = test system: Human PBMCs; assay: Inhibition of antigen (PPD)-induced T lymphocyte proliferation of PBMCs; type: cell-based; conditions: PBMC, PPD 1 μg/ml, 72 hrs, tritiated thymidine, read-out: IC50, PBMCs stimulated with PPD
[4] = test system: Human PBMCs; assay: Inhibition of anti-CD3-induced T lymphocyte proliferation of PBMCs; type: cell-based; conditions: 48 hrs; for Inhibition of cell proliferation (in words), anti-CD3: range of dilutions
Experimental: Inhibition of Anti-CD3-induced T Lymphocyte Activation and Proliferation
The compounds of examples 1, 6, 19, 39, 40 and 43 above were tested for its effects on anti-CD3-driven proliferation of peripheral blood mononuclear cells (PBMCs) in vitro. The PBMCs were activated with anti-CD3 antibody which directly activates T lymphocytes via the T cell receptor CD3 component, although other cells do contribute to T cell proliferation by co-stimulation and growth factor production. Human PBMCs (5×10^4cells/well), purified from whole blood by centrifugation through ficoll/hypaque, were incubated in monoclonal anti-CD3 antibody-coated wells (5 μg/ml) and compound 1 at a range of dilutions in a 96 well microtitre plate for 48 hrs at 37° C. in a 5% CO2 incubator. DMSO was run in each assay as a vehicle control. 0.5 μCuries of tritiated thymidine in 40 μl (Amersham) were added to each well during the final 18 hrs. The cells were then harvested on glass fibre pads using a Tomtech cell harvester and, after adding scintillant to the pad (Meltilex) they were placed in a Wallac MicroBeta plate counter. The results obtained are in counts per minute and reflect the level of tritiated thymidine incorporation into the cells and therefore the level of cell proliferation. The percentage proliferation in test wells compared to control wells was calculated. The results were plotted and the IC50 value calculated.

[5] = test system: Experimental Autoimmune Neuritis; assay: Experimental Autoimmune Neuritis animal model; type: in vivo, Male Lewis rats; conditions: 100 mg.kg^-1 ip uid, day 1 to 14; day 15 post-inoculation; groups of 9
[6] = test system: TNF alpha; assay: Inhibition of TNF production in PWM-activated whole blood; type: cell-based; conditions: 10 μM, PWM-activated whole blood diluted 1/5, 24 hours; for TNF alpha: vehicle 1031 pg/ml
Experimental: (§1) Human PBMCs (2-5×10^6 cells/well), purified from whole blood by centrifugation through ficoll/hypaque, were incubated with either PWM (2.5 μg/ml) or PPD (1 μg/ml) and compound example 3 at 10 μM in a 24 well microtitre plates for 48 hrs at 37° C. in a CO2 incubator. DMSO was run in each assay as a vehicle control. Supernatant was removed after 48 hrs and microfuged at 10,000 rpm for 2 minutes. Supematant was removed, aliquotted and stored at -70° C. until tested.
In a modification of the above procedure, the compounds of Examples 19 and 40 were tested at 10 μM for inhibition of TNF production in PWM-activated whole blood diluted 1/5 in RPMI containing 1% nutridoma. The supernatants were tested after 24 hours of culture.

[7] = test system: TNF; assay: Inhibition of production of TNF, PWM-activated PBMCs (ELISA); type: cell-based, Human; conditions: 48 hrs
Experimental: (§2) Inhibition of Production of TNF
(§3) The compound of example 3 above was tested for its effect on the production of the pro-inflammatory cytokine TNF. TNF is released from various cells (monocytes and B lymphocytes) following activation by mitogen or antigen. The production of this inflammatory mediator in the supernatant of activated PBMCs was measured by ELISA.
as §1

[8] = test system: TNF; assay: Inhibition of production of TNF, PPD-activated PBMCs (ELISA); type: cell-based, Human; conditions: 48 hrs
Experimental: as §2, §3, §1

Compound | IC50 [1] [nM] | IC50 [3] [nM] | Inhibition of cell proliferation (in words), anti-CD3 [4] | also measured
C=CC[C@H](C(=O)NO)[C@@H](CC(C)C)C(=O)N[C@@H](Cc1ccccc1)C(=O)OC [Example 1, 2S-(3S-Hydroxycarbamoyl-2R-isobutyl-hex-5-enoylamino)-3-phenylpropionic acid methyl ester] | 4700 | 2000 | inhibited cell proliferation in a dose related fashion | expression of CD69 (% of T cells) [2]: 48%; IC50 ([4]; Homo sapiens, PBMC, anti-CD3 antibody-coated wells 5 μg/ml, tritiated thymidine, read-out: IC50, PBMCs stimulated with ANTI-CD3): 2100 nM
C=CC[C@H](C(=O)NO)[C@@H](CC(C)C)C(=O)N[C@@H](COC(C)(C)C)C(=O)OC1CCCC1 [Example 39, 3-tert-Butoxy-2S-(3S-hydroxycarbamoyl-2R-isobutyl-hex-5-enoylamino)-propionic acid cyclopentyl ester] | – | – | inhibited cell proliferation in a dose related fashion | –
C=CC[C@H](C(=O)NO)[C@@H](CC(C)C)C(=O)N[C@@H](Cc1ccccc1)C(=O)OC1CCCC1 [Example 19, 2S-(3S-Hydroxycarbamoyl-2R-isobutyl-hex-5-enoylamino)-3-phenylpropionic acid cyclopentyl ester] | – | 1100 | inhibited cell proliferation in a dose related fashion | reduction in mean clinical score compared to vehicle group [5]: 93%; TNF production (in words) [6]: reduced the level of TNF production; TNF alpha [6]: 489 pg/mL
C=CC[C@H](C(=O)NO)[C@@H](CC(C)C)C(=O)N[C@@H](Cc1ccccc1)C(=O)OCC [Example 2, 2S-(3S-Hydroxycarbamoyl-2R-isobutyl-hex-5-enoylamino)-3-phenylpropionic acid ethyl ester] | 4800 | – | – | –
C=CC[C@H](C(=O)NO)[C@@H](CC(C)C)C(=O)N[C@H](C(=O)OC1CCCC1)c1ccccc1 [Example 40, 2S-(3S-Hydroxycarbamoyl-2R-isobutyl-hex-5-enoylamino)-2-phenylethanoic acid cyclopentyl ester] | – | – | inhibited cell proliferation in a dose related fashion | TNF production (in words) [6]: reduced the level of TNF production; TNF alpha [6]: 600 pg/mL
CC(C)C[C@@H](C(=O)NC(C(=O)OC1CCCC1)c1ccccc1)[C@H](O)C(=O)NO (stereo partly drawn) [Example 43, 2-[2R-(S-Hydroxy-hydroxycarbamoyl-methyl)-4-methyl-pentanoylamine]-2-phenyl-ethanoic acid cyclopentyl ester] | – | – | inhibited cell proliferation in a dose related fashion | –
CC(C)C[C@H](CC(=O)NO)C(=O)N[C@@H](Cc1ccccc1)C(=O)OC(C)C [Example 6, 2S-(2R-Hydroxycarbamoylmethyl-4-methyl-pentanoylamino)-3-phenyl-propionic acid isopropyl ester] | – | – | inhibited cell proliferation in a dose related fashion | –
C=CC[C@H](C(=O)NO)[C@@H](CC(C)C)C(=O)N[C@@H](Cc1ccccc1)C(=O)OC(C)C [Example 3, 2S-(3S-Hydroxycarbamoyl-2R-isobutyl-hex-5-enoylamino)-3-phenylpropionic acid isopropyl ester] | 2400 | 1800 | – | TNF, ACTIVATED PWM ([7]; 10 μM, dmso 1390 pg/ml): 495 pg/mL; inhibition at 10 µM ([7]; Homo sapiens, PBMC, versus dmso, read-out: reduction of the level of TNF production, PWM system): 64%; TNF, ACTIVATED PPD ([8]; 10 μM, dmso 50 pg/ml): 15 pg/mL; inhibition at 10 µM ([8]; Homo sapiens, PBMC, versus dmso, read-out: reduction of the level of TNF production, PPD system): 70%
